Results as given in PubChem BioAssay AID1963825 (Molecular Pharmacology Branch, DTP, NCI, 2024).
pIC50: −log10 of the molar value.

Assay: Anticancer human tumor 997537-175-T-J1-PDC patient-derived colon adenocarcinoma cell line growth inhibition [POLQ]
Conditions: 997537-175-T-J1-PDC complex spheroid viability, combination with POLQ inhibitors; for pIC50: curve of first compound; for viability, T/C: stronger effect = lower value; active = viability on the fitted dose curve at most 10% of control; inactive = the rest
How it was run: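 Complex spheroid viability model combining PDC tumour cells with endothelial (HUVEC) and MSC stromal cells. Novobiocin, ART-558 or RP6685 were tested singly and in combination with standard and investigational anticancer drugs. Each was titrated in half-log steps from near clinical Cmax, or from 10 microM where Cmax was unknown.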
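Note: luminescence signal used as a surrogate for viable cells; spheroids exposed to drugs for seven days before readout.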

CC(=O)O[C@H]1C(=O)[C@@]2(C)[C@H]([C@H](OC(=O)c3ccccc3)[C@]3(O)C[C@H](OC(=O)[C@H](O)[C@@H](NC(=O)c4ccccc4)c4ccccc4)C(C)=C1C3(C)C)[C@]1(OC(C)=O)CO[C@@H]1C[C@@H]2O + Cc1cccc(N(C)C(=O)C2C(O)CCN2c2nc(C)cc(C(F)(F)F)c2C#N)c1
> 8.02: pIC50 (second compound 0.0316 µM) | pIC50 (second compound 0.1 µM) | pIC50 (second compound 1 µM) | pIC50 (second compound 10 µM)
7.49: pIC50 (second compound 0.316 µM)
inactive: viability, T/C (second compound 0.0316 µM, first compound 0.00949 µM) 56% | viability, T/C (second compound 0.0316 µM, first compound 0.03 µM) 32.5% | viability, T/C (second compound 0.0316 µM, first compound 0.0949 µM) 16.2% | viability, T/C (second compound 0.0316 µM, first compound 0.3 µM) 20.3% | viability, T/C (second compound 0.0316 µM, first compound 0.949 µM) 35.2% | viability, T/C (second compound 0.0316 µM, first compound 3 µM) 41.5% | viability, T/C (second compound 0.1 µM, first compound 0.00949 µM) 53.7% | viability, T/C (second compound 0.1 µM, first compound 0.03 µM) 39% | viability, T/C (second compound 0.1 µM, first compound 0.0949 µM) 45.4% | viability, T/C (second compound 0.1 µM, first compound 0.3 µM) 32.4% | viability, T/C (second compound 0.1 µM, first compound 0.949 µM) 41.5% | viability, T/C (second compound 0.1 µM, first compound 3 µM) 35.5% | viability, T/C (second compound 0.316 µM, first compound 0.00949 µM) 54.1% | viability, T/C (second compound 0.316 µM, first compound 0.03 µM) 51.6% | viability, T/C (second compound 0.316 µM, first compound 0.0949 µM) 30.1% | viability, T/C (second compound 0.316 µM, first compound 0.3 µM) 29.8% | viability, T/C (second compound 0.316 µM, first compound 0.949 µM) 26.2% | viability, T/C (second compound 0.316 µM, first compound 3 µM) 20.3% | viability, T/C (second compound 1 µM, first compound 0.00949 µM) 41% | viability, T/C (second compound 1 µM, first compound 0.03 µM) 32.3% | viability, T/C (second compound 1 µM, first compound 0.0949 µM) 28.3% | viability, T/C (second compound 1 µM, first compound 0.3 µM) 39.7% | viability, T/C (second compound 1 µM, first compound 0.949 µM) 34.3% | viability, T/C (second compound 1 µM, first compound 3 µM) 31.9% | viability, T/C (second compound 3.16 µM, first compound 0.00949 µM) 79.5% | viability, T/C (second compound 3.16 µM, first compound 0.03 µM) 38.5% | viability, T/C (second compound 3.16 µM, first compound 0.0949 µM) 20.8% | viability, T/C (second compound 3.16 µM, first compound 0.3 µM) 40.2% | viability, T/C (second compound 3.16 µM, first compound 0.949 µM) 31.5% | viability, T/C (second compound 3.16 µM, first compound 3 µM) 34.2% | viability, T/C (second compound 10 µM, first compound 0.00949 µM) 48.1% | viability, T/C (second compound 10 µM, first compound 0.03 µM) 38.8% | viability, T/C (second compound 10 µM, first compound 0.0949 µM) 47.5% | viability, T/C (second compound 10 µM, first compound 0.3 µM) 30.6% | viability, T/C (second compound 10 µM, first compound 0.949 µM) 26.2% | viability, T/C (second compound 10 µM, first compound 3 µM) 53.9%
7.68: pIC50 (second compound 3.16 µM)
